Experimental data published in patent US10894817B2, “Fatty acid modified urocortin-2 analogs for the treatment of diabetes and chronic kidney disease” (priority 2016, dated 2021).
Starred links: 1 amine or outer side, 2 acyl side, 3 side chain; linkers in the order of their positions; H or OH if unused. Non-standard residues stand in square brackets, D forms with d. Residues, ends and D or L forms follow the SMILES beside them. Groups on a side chain read outwards from the residue. *: point of attachment. C20 diacid = O=C(O)CCCCCCCCCCCCCCCCCCC(=O)*; γGlu = O=C(O)[C@H](CCC(=O)[*:2])N[*:1]; NMeI = CC[C@H](C)[C@H](NC)C(=O)O; AEEA = NCCOCCOCC(=O)O

Biological target: T1, human CRHR2b (Homo sapiens, UniProt Q13324)
T1 construct: expressed in transfected cells; host or cells: Chinese Hamster Ovary (CHO) cells, transient transfection
T1 sequence (Q13324 1-438 isoform Q13324-2): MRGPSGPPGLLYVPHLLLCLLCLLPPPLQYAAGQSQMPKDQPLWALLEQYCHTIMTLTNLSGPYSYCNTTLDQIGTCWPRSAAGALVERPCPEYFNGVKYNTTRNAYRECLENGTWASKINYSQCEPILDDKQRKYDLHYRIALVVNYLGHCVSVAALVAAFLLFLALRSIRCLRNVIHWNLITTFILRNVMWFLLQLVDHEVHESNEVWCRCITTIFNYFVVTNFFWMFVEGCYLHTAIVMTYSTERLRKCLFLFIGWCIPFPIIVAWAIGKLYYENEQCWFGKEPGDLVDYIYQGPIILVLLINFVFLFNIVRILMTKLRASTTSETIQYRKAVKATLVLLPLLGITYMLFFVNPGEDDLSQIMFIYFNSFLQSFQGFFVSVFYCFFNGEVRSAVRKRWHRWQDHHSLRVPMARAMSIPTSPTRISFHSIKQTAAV
Assay: human CRHR2b cell-based cAMP assay
Settings: cAMP assay; Table 26, compounds of Example 9; read-out: hCRHR2b Average EC50
Method in brief: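 ED50 values are means ± SEM over several runs, curve-fitted from cAMP in pmol, calibrated against unlabeled-cAMP standards. Detection was HTRF competition, ratio 665/620 nm, after 30 min agonist exposure at 37 °C.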

| SMILES | EC50 [nM] |
| --- | --- |
| CC[C@H](C)[C@H](NC)C(=O)N[C@H](C(=O)N[C@@H](CC(C)C)C(=O)N[C@@H](CO)C(=O)N[C@@H](CC(C)C)C(=O)N[C@@H](CC(=O)O)C(=O)N[C@H](C(=O)N1CCC[C@H]1C(=O)N[C@H](C(=O)NCC(=O)N[C@@H](CC(C)C)C(=O)N[C@@H](CC(C)C)C(=O)N[C@@H](CCC(N)=O)C(=O)N[C@H](C(=O)N[C@@H](CC(C)C)C(=O)N[C@@H](CC(C)C)C(=O)N[C@@H](CCC(=O)O)C(=O)N[C@@H](CCC(N)=O)C(=O)N[C@@H](CCC(=O)O)C(=O)N[C@@H](CCCCN)C(=O)N[C@@H](CCC(N)=O)C(=O)N[C@@H](CCC(=O)O)C(=O)N[C@@H](CCCCN)C(=O)N[C@@H](CCC(=O)O)C(=O)N[C@@H](CCCCN)C(=O)N[C@@H](CCC(N)=O)C(=O)N[C@@H](CCC(N)=O)C(=O)N[C@@H](C)C(=O)N[C@@H](CCCCNC(=O)CC[C@H](NC(=O)COCCOCCNC(=O)COCCOCCNC(=O)CC[C@H](NC(=O)CC[C@H](NC(=O)CCCCCCCCCCCCCCCCCCC(=O)O)C(=O)O)C(=O)O)C(=O)O)C(=O)N[C@H](C(=O)N[C@@H](CC(N)=O)C(=O)N[C@@H](C)C(=O)N[C@@H](CCC(N)=O)C(=O)N[C@H](C(=O)N[C@@H](CC(C)C)C(=O)N[C@@H](C)C(=O)N[C@@H](CCC(N)=O)C(=O)N[C@H](C(N)=O)C(C)C)[C@@H](C)CC)[C@@H](C)O)[C@@H](C)CC)[C@@H](C)CC)C(C)C)C(C)C [Compound 60] (H-[NMeI]VLSLDVPIGLLQILLEQEKQEKEKQQAK([γGlu-AEEA-AEEA-γGlu-γGlu-C20 diacid])TNAQILAQV-NH2) | 2.55 |
| CC[C@H](C)[C@H](NC)C(=O)N[C@H](C(=O)N[C@@H](CC(C)C)C(=O)N[C@@H](CO)C(=O)N[C@@H](CC(C)C)C(=O)N[C@@H](CC(=O)O)C(=O)N[C@H](C(=O)N1CCC[C@H]1C(=O)N[C@H](C(=O)NCC(=O)N[C@@H](CC(C)C)C(=O)N[C@@H](CC(C)C)C(=O)N[C@@H](CCC(N)=O)C(=O)N[C@H](C(=O)N[C@@H](CC(C)C)C(=O)N[C@@H](CC(C)C)C(=O)N[C@@H](CCC(=O)O)C(=O)N[C@@H](CCC(N)=O)C(=O)N[C@@H](CCC(=O)O)C(=O)N[C@@H](CCCCN)C(=O)N[C@@H](CCC(N)=O)C(=O)N[C@@H](CCC(=O)O)C(=O)N[C@@H](CCCCN)C(=O)N[C@@H](CCC(=O)O)C(=O)N[C@@H](CCCCN)C(=O)N[C@@H](CCC(N)=O)C(=O)N[C@@H](CCC(N)=O)C(=O)N[C@@H](C)C(=O)N[C@@H](CCCCNC(=O)CC[C@H](NC(=O)COCCOCCNC(=O)CC[C@H](NC(=O)CC[C@H](NC(=O)CCCCCCCCCCCCCCCCCCC(=O)O)C(=O)O)C(=O)O)C(=O)O)C(=O)N[C@H](C(=O)N[C@@H](CC(N)=O)C(=O)N[C@@H](C)C(=O)N[C@@H](CCC(N)=O)C(=O)N[C@H](C(=O)N[C@@H](CC(C)C)C(=O)N[C@@H](C)C(=O)N[C@@H](CCC(N)=O)C(=O)N[C@H](C(N)=O)C(C)C)[C@@H](C)CC)[C@@H](C)O)[C@@H](C)CC)[C@@H](C)CC)C(C)C)C(C)C [Compound 61] (H-[NMeI]VLSLDVPIGLLQILLEQEKQEKEKQQAK([γGlu-AEEA-γGlu-γGlu-C20 diacid])TNAQILAQV-NH2) | 2.5 |
| CC[C@H](C)[C@H](NC)C(=O)N[C@H](C(=O)N[C@@H](CC(C)C)C(=O)N[C@@H](CO)C(=O)N[C@@H](CC(C)C)C(=O)N[C@@H](CC(=O)O)C(=O)N[C@H](C(=O)N1CCC[C@H]1C(=O)N[C@H](C(=O)NCC(=O)N[C@@H](CC(C)C)C(=O)N[C@@H](CC(C)C)C(=O)N[C@@H](CCC(N)=O)C(=O)N[C@H](C(=O)N[C@@H](CC(C)C)C(=O)N[C@@H](CC(C)C)C(=O)N[C@@H](CCC(=O)O)C(=O)N[C@@H](CCC(N)=O)C(=O)N[C@@H](CCC(=O)O)C(=O)N[C@@H](CCCCN)C(=O)N[C@@H](CCC(N)=O)C(=O)N[C@@H](CCC(=O)O)C(=O)N[C@@H](CCCCN)C(=O)N[C@@H](CCC(=O)O)C(=O)N[C@@H](CCCCN)C(=O)N[C@@H](CCC(N)=O)C(=O)N[C@@H](CCC(N)=O)C(=O)N[C@@H](C)C(=O)N[C@@H](CCCCNC(=O)CC[C@H](NC(=O)CC[C@H](NC(=O)COCCOCCNC(=O)COCCOCCNC(=O)CC[C@H](NC(=O)CC[C@H](NC(=O)CCCCCCCCCCCCCCCCCCC(=O)O)C(=O)O)C(=O)O)C(=O)O)C(=O)O)C(=O)N[C@H](C(=O)N[C@@H](CC(N)=O)C(=O)N[C@@H](C)C(=O)N[C@@H](CCC(N)=O)C(=O)N[C@H](C(=O)N[C@@H](CC(C)C)C(=O)N[C@@H](C)C(=O)N[C@@H](CCC(N)=O)C(=O)N[C@H](C(N)=O)C(C)C)[C@@H](C)CC)[C@@H](C)O)[C@@H](C)CC)[C@@H](C)CC)C(C)C)C(C)C [Compound 62] (H-[NMeI]VLSLDVPIGLLQILLEQEKQEKEKQQAK([γGlu-γGlu-AEEA-AEEA-γGlu-γGlu-C20 diacid])TNAQILAQV-NH2) | 4.5 |
| CC[C@H](C)[C@H](NC)C(=O)N[C@H](C(=O)N[C@@H](CC(C)C)C(=O)N[C@@H](CO)C(=O)N[C@@H](CC(C)C)C(=O)N[C@@H](CC(=O)O)C(=O)N[C@H](C(=O)N1CCC[C@H]1C(=O)N[C@H](C(=O)NCC(=O)N[C@@H](CC(C)C)C(=O)N[C@@H](CC(C)C)C(=O)N[C@@H](CCC(N)=O)C(=O)N[C@H](C(=O)N[C@@H](CC(C)C)C(=O)N[C@@H](CC(C)C)C(=O)N[C@@H](CCC(=O)O)C(=O)N[C@@H](CCC(N)=O)C(=O)N[C@@H](CCC(=O)O)C(=O)N[C@@H](CCCCN)C(=O)N[C@@H](CCC(N)=O)C(=O)N[C@@H](CCC(=O)O)C(=O)N[C@@H](CCCCN)C(=O)N[C@@H](CCC(=O)O)C(=O)N[C@@H](CCCCN)C(=O)N[C@@H](CCC(N)=O)C(=O)N[C@@H](CCC(N)=O)C(=O)N[C@@H](C)C(=O)N[C@@H](CCCCNC(=O)CC[C@H](NC(=O)CC[C@H](NC(=O)COCCOCCNC(=O)CC[C@H](NC(=O)CC[C@H](NC(=O)CCCCCCCCCCCCCCCCCCC(=O)O)C(=O)O)C(=O)O)C(=O)O)C(=O)O)C(=O)N[C@H](C(=O)N[C@@H](CC(N)=O)C(=O)N[C@@H](C)C(=O)N[C@@H](CCC(N)=O)C(=O)N[C@H](C(=O)N[C@@H](CC(C)C)C(=O)N[C@@H](C)C(=O)N[C@@H](CCC(N)=O)C(=O)N[C@H](C(N)=O)C(C)C)[C@@H](C)CC)[C@@H](C)O)[C@@H](C)CC)[C@@H](C)CC)C(C)C)C(C)C [Compound 63] (H-[NMeI]VLSLDVPIGLLQILLEQEKQEKEKQQAK([γGlu-γGlu-AEEA-γGlu-γGlu-C20 diacid])TNAQILAQV-NH2) | 1.3 |
| CC[C@H](C)[C@H](NC)C(=O)N[C@H](C(=O)N[C@@H](CC(C)C)C(=O)N[C@@H](CO)C(=O)N[C@@H](CC(C)C)C(=O)N[C@@H](CC(=O)O)C(=O)N[C@H](C(=O)N1CCC[C@H]1C(=O)N[C@H](C(=O)NCC(=O)N[C@@H](CC(C)C)C(=O)N[C@@H](CC(C)C)C(=O)N[C@@H](CCC(N)=O)C(=O)N[C@H](C(=O)N[C@@H](CC(C)C)C(=O)N[C@@H](CC(C)C)C(=O)N[C@@H](CCC(=O)O)C(=O)N[C@@H](CCC(N)=O)C(=O)N[C@@H](CCC(=O)O)C(=O)N[C@@H](CCCCN)C(=O)N[C@@H](CCC(N)=O)C(=O)N[C@@H](CCC(=O)O)C(=O)N[C@@H](CCCCN)C(=O)N[C@@H](CCC(=O)O)C(=O)N[C@@H](CCCCN)C(=O)N[C@@H](CCC(N)=O)C(=O)N[C@@H](CCC(N)=O)C(=O)N[C@@H](C)C(=O)N[C@@H](CCCCNC(=O)CC[C@H](NC(=O)CC[C@H](NC(=O)CC[C@H](NC(=O)CC[C@H](NC(=O)CCCCCCCCCCCCCCCCCCC(=O)O)C(=O)O)C(=O)O)C(=O)O)C(=O)O)C(=O)N[C@H](C(=O)N[C@@H](CC(N)=O)C(=O)N[C@@H](C)C(=O)N[C@@H](CCC(N)=O)C(=O)N[C@H](C(=O)N[C@@H](CC(C)C)C(=O)N[C@@H](C)C(=O)N[C@@H](CCC(N)=O)C(=O)N[C@H](C(N)=O)C(C)C)[C@@H](C)CC)[C@@H](C)O)[C@@H](C)CC)[C@@H](C)CC)C(C)C)C(C)C [Compound 64] (H-[NMeI]VLSLDVPIGLLQILLEQEKQEKEKQQAK([γGlu-γGlu-γGlu-γGlu-C20 diacid])TNAQILAQV-NH2) | 1.63 |
| CC[C@H](C)[C@H](NC)C(=O)N[C@H](C(=O)N[C@H](C(=O)N[C@@H](CO)C(=O)N[C@@H](CC(C)C)C(=O)N[C@@H](CC(=O)O)C(=O)N[C@H](C(=O)N1CCC[C@H]1C(=O)N[C@H](C(=O)NCC(=O)N[C@@H](CC(C)C)C(=O)N[C@@H](CC(C)C)C(=O)N[C@@H](CCC(N)=O)C(=O)N[C@H](C(=O)N[C@@H](CC(C)C)C(=O)N[C@@H](CC(C)C)C(=O)N[C@@H](CCC(=O)O)C(=O)N[C@@H](CCC(N)=O)C(=O)N[C@@H](CCC(=O)O)C(=O)N[C@@H](CCCCN)C(=O)N[C@@H](CCC(N)=O)C(=O)N[C@@H](CCC(=O)O)C(=O)N[C@@H](CCCCN)C(=O)N[C@@H](CCC(=O)O)C(=O)N[C@@H](CCCCN)C(=O)N[C@@H](CCC(N)=O)C(=O)N[C@@H](CCC(N)=O)C(=O)N[C@@H](C)C(=O)N[C@@H](CCCCNC(=O)CC[C@H](NC(=O)COCCOCCNC(=O)COCCOCCNC(=O)CC[C@H](NC(=O)CC[C@H](NC(=O)CCCCCCCCCCCCCCCCCCC(=O)O)C(=O)O)C(=O)O)C(=O)O)C(=O)N[C@H](C(=O)N[C@@H](CC(N)=O)C(=O)N[C@@H](C)C(=O)N[C@@H](CCC(=O)O)C(=O)N[C@H](C(=O)N[C@@H](CC(C)C)C(=O)N[C@@H](C)C(=O)N[C@@H](CCC(N)=O)C(=O)N[C@H](C(N)=O)C(C)C)[C@@H](C)CC)[C@@H](C)O)[C@@H](C)CC)[C@@H](C)CC)C(C)C)[C@@H](C)O)C(C)C [Compound 66] (H-[NMeI]VTSLDVPIGLLQILLEQEKQEKEKQQAK([γGlu-AEEA-AEEA-γGlu-γGlu-C20 diacid])TNAEILAQV-NH2) | 1.45 |
